PMC6611404 (Frontiers in Aging Neuroscience, 2019)
Values joined by “and” are separate entries in the source; they are usually repeats but may differ in a detail not shown here. Equal entries are not always repeated. Where two headings read alike, the source gives them in different places.

Assays:
[1] = biological target: T1, AChE from human erythrocytes (Homo sapiens, UniProt P22303); assay: biochemical; conditions: for inhibition at 1 µM: read-out: (h)AChE % inhibition at 10^−6M
T1 construct: AChE from human erythrocytes; purchased Sigma Aldrich; host or cells: human erythrocytes (natural source)
Experimental: Acetylthiocholine iodide and 5,5-dithiobis-(2-nitrobenzoic) acid (DTNB) were purchased from Sigma Aldrich. AChE from human erythrocytes (buffered aqueous solution, ≥500 units/mg protein (BCA), Sigma Aldrich) was diluted in 20 mM HEPES buffer pH 8, 0.1% Triton X-100 such as to have enzyme solution with 0.25 unit/mL enzyme activity. In the procedure, 100 μL of 0.3 mM DTNB dissolved in phosphate buffer pH 7.4 was added into the 96-well plate followed by 50 μL of test compound solution and 50 μL of enzyme (0.05 U final). After 5 min of preincubation at 25°C, the reaction was then initiated by the injection of 50 μL of 10 mM acetylthiocholine iodide solution. […] Assays were performed with a blank containing all components except acetylthiocholine, in order to account for non-enzymatic reaction. The reaction slopes were compared and the percent inhibition due to the presence of test compounds was calculated by the following expression: 100 − (vi/v0 × 100) where vi is the rate calculated in the presence of inhibitor and v0 is the enzyme activity.

human 5-HT6 receptors = biological target: T2, human 5-HT6 receptors (Homo sapiens, UniProt P50406); assay: [3H]-LSD competition binding on membranes of HEK-293 cells expressing human 5-HT6 receptors; conditions: for inhibition / inhibition at 0.0025 µM: 2.5 nM [3H]-LSD; for Ki: (h)5-HT6R Ki, n = 3, Ki ± SD
T2 construct: purchased Perkin Elmer RBHS6M; host or cells: HEK-293 cells, transient expression (membranes)
Experimental: Drugs were evaluated through their possibility to compete for the binding of [^3H]-LSD on membranes of HEK-293 cells transiently expressing the human 5-HT6 receptors (ref. RBHS6M, Perkin Elmer). […] At the end of the incubation, the homogenates were then filtered through Whatman GF/C filters and washed five times with ice-cold 25 mM Tris-HCl buffer. Non-specific binding was evaluated in the presence of 100 μM serotonin. Radioactivity associated to proteins was then quantified and expressed as the percentage of inhibition of the drugs under study.
(§1) For some of these compounds, affinity constants were calculated from five-point inhibition curves using the GraphPad Prism 6 software and expressed as Ki ± SD.

Human 5-HT4R = biological target: T3, Human 5-HT4R (Homo sapiens, UniProt Q13639); assay: [3H]-GR113808 competition binding on 5-HT4(b) membrane preparations; conditions: for inhibition / inhibition at 0.0002 µM: 0.2 nM [3H]-GR113808; for Ki: (h)5-HT4R Ki, n = 3, Ki ± SD
T3 construct: purchased Eurofins HTS110M
Experimental: At the end of the incubation, homogenates were filtered through Whatman GF/C filters (Alpha Biotech) presoaked with 0.5% polyethylenimine using a Brandel cell harvester. Filters were subsequently washed three times with 1 mL of ice-cold 25 mM Tris buffer (pH 7.4, 4°C). Non-specific binding was evaluated in parallel in the presence of 30 μM serotonin.
as §1

[2] = read-out: (h)5-HT6R % inhibition at 10^−6M, 10^−6M
[3] = read-out: (h)5-HT6R % inhibition at 10^−8M, 10^−8M
[4] = read-out: (h)5-HT4R % inhibition at 10^−6M, 10^−6M
[5] = read-out: (h)5-HT4R % inhibition at 10^−8M, 10^−8M

T3 sequence (Q13639 whole entry): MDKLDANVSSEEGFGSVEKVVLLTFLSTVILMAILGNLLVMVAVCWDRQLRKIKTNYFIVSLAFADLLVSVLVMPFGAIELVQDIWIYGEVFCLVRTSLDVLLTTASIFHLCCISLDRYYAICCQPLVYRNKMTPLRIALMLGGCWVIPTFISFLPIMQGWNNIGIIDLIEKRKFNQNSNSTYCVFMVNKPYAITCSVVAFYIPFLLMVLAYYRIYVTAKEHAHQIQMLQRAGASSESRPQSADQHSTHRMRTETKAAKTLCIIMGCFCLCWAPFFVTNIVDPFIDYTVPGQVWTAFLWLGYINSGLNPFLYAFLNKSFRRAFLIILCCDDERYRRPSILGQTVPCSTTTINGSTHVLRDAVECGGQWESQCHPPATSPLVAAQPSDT
T1 sequence (P22303 other isoform, or with tags, fused parts or gaps): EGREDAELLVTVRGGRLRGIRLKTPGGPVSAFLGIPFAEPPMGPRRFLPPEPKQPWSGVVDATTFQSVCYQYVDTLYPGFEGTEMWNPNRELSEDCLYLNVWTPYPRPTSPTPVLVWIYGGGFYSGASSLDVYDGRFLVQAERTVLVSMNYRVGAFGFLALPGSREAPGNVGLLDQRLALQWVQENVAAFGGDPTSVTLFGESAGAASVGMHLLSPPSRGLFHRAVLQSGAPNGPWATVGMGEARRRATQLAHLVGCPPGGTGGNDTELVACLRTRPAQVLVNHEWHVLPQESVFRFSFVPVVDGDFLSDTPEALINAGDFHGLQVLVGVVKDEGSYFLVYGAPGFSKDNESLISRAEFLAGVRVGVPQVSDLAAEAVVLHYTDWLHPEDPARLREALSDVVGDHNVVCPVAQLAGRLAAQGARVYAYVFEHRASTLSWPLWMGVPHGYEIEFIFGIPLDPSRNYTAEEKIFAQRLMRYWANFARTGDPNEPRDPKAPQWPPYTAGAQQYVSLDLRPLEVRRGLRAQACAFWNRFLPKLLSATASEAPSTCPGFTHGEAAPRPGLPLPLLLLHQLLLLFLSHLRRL
T2 sequence (P50406 whole entry): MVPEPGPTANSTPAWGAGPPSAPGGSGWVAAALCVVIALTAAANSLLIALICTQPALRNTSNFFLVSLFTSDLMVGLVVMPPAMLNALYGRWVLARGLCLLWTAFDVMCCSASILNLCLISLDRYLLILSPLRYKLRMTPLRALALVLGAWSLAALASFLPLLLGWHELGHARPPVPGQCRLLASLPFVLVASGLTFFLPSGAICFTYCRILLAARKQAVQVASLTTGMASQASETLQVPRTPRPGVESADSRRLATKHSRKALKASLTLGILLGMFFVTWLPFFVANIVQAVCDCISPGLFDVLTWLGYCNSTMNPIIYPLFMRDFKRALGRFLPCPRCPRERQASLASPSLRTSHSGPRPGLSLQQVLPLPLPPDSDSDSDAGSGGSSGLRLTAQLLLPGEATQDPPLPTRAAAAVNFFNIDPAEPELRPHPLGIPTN

Structure (SMILES)	inhibition at 1 µM [1] [%]	affinity for 5-HT6R (in words) (human 5-HT6 receptors)	inhibition (human 5-HT6 receptors; [2]) [%]	inhibition (human 5-HT6 receptors; [3]) [%]	inhibition (Human 5-HT4R; [4]) [%]	inhibition (Human 5-HT4R; [5]) [%]	IC50 ([1]; n = 2, read-out: (h)AChE IC50) [nM]	Ki (human 5-HT6 receptors) [nM]	inhibitory effect towards AChE (in words) [1]	inhibition at 0.0025 µM (human 5-HT6 receptors; [2]) [%]	IC50 ([1]; (h)AChE IC50, n = 2) [nM]	Ki (Human 5-HT4R)	inhibition at 0.0002 µM (Human 5-HT4R; [5]) [%]
COc1cc(N)c(Cl)cc1C(=O)CCC1CCN(Cc2ccccc2)CC1 [5a]	98	devoid of such an activity	29	0	102	41	–	–	–	–	–	–	–
COc1cc(N)c(Cl)cc1C(=O)CCC1CCN(Cc2ccccc2Cl)CC1 [5b, 1-(4-Amino-5-chloro-2-methoxyphenyl)-3-(1-(2-chlorobenzyl)piperidin-4-yl)propan-1-one]	91	–	–	27	94	16	156 ± 71	110 ± 19	–	–	–	–	–
COc1cc(N)c(Cl)cc1C(=O)CCC1CCN(Cc2ccccc2Br)CC1 [5c, 1-(4-Amino-5-chloro-2-methoxyphenyl)-3-(1-(2-bromobenzyl)piperidin-4-yl)propan-1-one]	80	–	65	34	96	17	317 ± 115	–	–	–	–	–	–
COc1cc(N)c(Cl)cc1C(=O)CCC1CCN(Cc2ccccc2F)CC1 [5d, 1-(4-Amino-5-chloro-2-methoxyphenyl)-3-(1-(2-fluorobenzyl)piperidin-4-yl)propan-1-one]	96	–	68	21	94	10	102 ± 65.4	–	–	–	–	–	–
COc1cc(N)c(Cl)cc1C(=O)CCC1CCN(Cc2ccccc2I)CC1 [5e, 1-(4-Amino-5-chloro-2-methoxyphenyl)-3-(1-(2-iodobenzyl)piperidin-4-yl)propan-1-one]	37	displayed affinity for 5-HT6R	81	25	96	1	–	186 ± 71	devoid of inhibitory effect towards AChE	–	–	–	–
COc1cc(N)c(Cl)cc1C(=O)CCC1CCN(Cc2ccccc2C)CC1 [5f, 1-(4-Amino-5-chloro-2-methoxyphenyl)-3-(1-(2-methylbenzyl)piperidin-4-yl)propan-1-one]	87	–	–	24	98	9	225 ± 57.3	270 ± 14	–	> 70	–	–	–
COc1cc(N)c(Cl)cc1C(=O)CCC1CCN(Cc2ccccc2OCc2ccccc2)CC1 [5g, 1-(4-Amino-5-chloro-2-methoxyphenyl)-3-(1-(2-benzyloxybenzyl)piperidin-4-yl)propan-1-one]	33	–	18	0	70	7	–	–	–	–	–	–	–
COc1cc(N)c(Cl)cc1C(=O)CCC1CCN(Cc2ccccc2O)CC1 [5h, 1-(4-Amino-5-chloro-2-methoxyphenyl)-3-(1-(2-hydroxybenzyl)piperidin-4-yl)propan-1-one]	94	–	24	0	98	10	57.4 ± 9.4	–	–	–	–	–	–
COc1cc(N)c(Cl)cc1C(=O)CCC1CCN(Cc2cccc(Br)c2)CC1 [5i, 1-(4-Amino-5-chloro-2-methoxyphenyl)-3-(1-(3-bromobenzyl)piperidin-4-yl)propan-1-one]	44	displayed affinity for 5-HT6R	77	7	94	5	–	169 ± 44	devoid of inhibitory effect towards AChE	–	–	–	–
COc1cc(N)c(Cl)cc1C(=O)CCC1CCN(Cc2cccc(F)c2)CC1 [5j, 1-(4-Amino-5-chloro-2-methoxyphenyl)-3-(1-(3-fluorobenzyl)piperidin-4-yl)propan-1-one]	97	–	59	9	98	12	91 ± 53.8	–	–	–	–	–	–
COc1cc(N)c(Cl)cc1C(=O)CCC1CCN(Cc2cccc(C)c2)CC1 [5k, 1-(4-Amino-5-chloro-2-methoxyphenyl)-3-(1-(3-methylbenzyl)piperidin-4-yl)propan-1-one]	89	–	–	9	98	–	–	230 ± 49	–	> 70	161 ± 43	168 ± 15 nM	≥ 25
COc1cccc(CN2CCC(CCC(=O)c3cc(Cl)c(N)cc3OC)CC2)c1 [5l, 1-(4-Amino-5-chloro-2-methoxyphenyl)-3-(1-(3-methoxybenzyl)piperidin-4-yl)propan-1-one]	35	displayed affinity for 5-HT6R	78	6	94	9	–	265 ± 64	devoid of inhibitory effect towards AChE	–	–	–	–
COc1cc(N)c(Cl)cc1C(=O)CCC1CCN(Cc2cccc(N)c2)CC1 [5m, 1-(4-Amino-5-chloro-2-methoxyphenyl)-3-(1-(3-aminobenzyl)piperidin-4-yl)propan-1-one]	93	–	–	31	100	–	41 ± 5	1150 ± 559	–	> 70	–	43 nM and 42.5 nM	≥ 25
COc1cc(N)c(Cl)cc1C(=O)CCC1CCN(Cc2cccc([N+](=O)[O-])c2)CC1 [5n, 1-(4-Amino-5-chloro-2-methoxyphenyl)-3-(1-(3-nitrobenzyl)piperidin-4-yl)propan-1-one]	64	–	51	0	90	3	–	–	–	–	–	–	–
COc1cc(N)c(Cl)cc1C(=O)CCC1CCN(Cc2ccc(F)cc2)CC1 [5o, 1-(4-Amino-5-chloro-2-methoxyphenyl)-3-(1-(4-fluorobenzyl)piperidin-4-yl)propan-1-one]	92	–	58	13	102	19	78.4 ± 12.1	–	–	–	–	–	–
COc1cc(N)c(Cl)cc1C(=O)CCC1CCN(Cc2ccc(O)cc2)CC1 [5p, 1-(4-Amino-5-chloro-2-methoxyphenyl)-3-(1-(4-hydroxybenzyl)piperidin-4-yl)propan-1-one]	98	–	24	0	100	23	6 ± 0.4	–	–	–	–	–	–
COc1cc(N)c(Cl)cc1C(=O)CCC1CCN(Cc2ccc(C)cc2)CC1 [5q, 1-(4-Amino-5-chloro-2-methoxyphenyl)-3-(1-(4-methylbenzyl)piperidin-4-yl)propan-1-one]	87	–	21	21	100	24	450	–	–	–	–	–	–
COc1cc(N)c(Cl)cc1C(=O)CCC1CCN(Cc2cc(NC(C)=O)ccc2Br)CC1 [5r, N-(3-((4-(3-(4-Amino-5-chloro-2-methoxyphenyl)-3-oxopropyl)piperidin-1-yl)methyl)-4-bromophenyl) acetamide]	13	–	35	7	96	6	–	–	–	–	–	–	–
COc1cc(N)c(Cl)cc1C(=O)CCC1CCN(Cc2cc([N+](=O)[O-])ccc2F)CC1 [5s, 1-(4-Amino-5-chloro-2-methoxyphenyl)-3-(1-(2-fluoro-5-nitrobenzyl)piperidin-4-yl)propan-1-one]	63	–	18	5	62	4	–	–	–	–	–	–	–
COc1cc(N)c(Cl)cc1C(=O)CCC1CCN(Cc2cc(N)ccc2F)CC1 [5t, 1-(4-Amino-5-chloro-2-methoxyphenyl)-3-(1-(5-amino-2-fluorobenzyl)piperidin-4-yl)propan-1-one]	79	–	65	3	98	18	153 ± 19.9	–	–	–	–	–	–
